Laboratory results as given in patent publication US20210260010A1, “COMPOSITIONS AND METHODS FOR THE REDUCTION OR TREATMENT OF INFLAMMATION” (AXCELLA HEALTH INC., priority 2018, published 2021).

Tests used:
Type in all cases: cell-based
IL-6 = IL-6 cytokine secretion by TNFα-stimulated primary human hepatic stellate cells (ELISA); settings: for IL-6 cytokine secretion, per-cell normalized, fold change from plasma amino acid background: primary human hepatic stellate cells, two donors, TNFα 3 ng/mL, 12 hours
Procedure: (§1) Primary human hepatic stellate cells were obtained from Samsara Sciences and grown in Complete HSC Medium to […] confluence in T75 or T150 flasks below passage 10 were seeded into 96-well plates and incubated for 6 hours at 37° C., 5% CO2 in a humidified incubator. After 6 hours, plates were removed from the incubator washed with DPBS and pretreated (±single amino acid dropout, ±supplemental amino acid dose; see experiment for medium composition) overnight, ˜14-15 hours. After overnight pretreatment, the medium was removed from the cells, and the same pretreatment medium, now supplemented with 3 ng/mL TNFα was applied. Plates were incubated for 12 hours at 37° C., 5% CO2. After 12 hour stimulus with TNFα, supernatant was removed and frozen at −80° C. in two separate aliquots. Plates were washed and incubated with CCK-8 viability reagent (Dojindo) for 1 hour. Viability was measured on the Synergy plate reader. Immediately, the medium was removed and the plates were fixed for immunofluorescence staining.
(§2) Human CCL2/MCP1 and Human IL-6 were measured by ELISA (Human […] DuoSet ELISA, R&D Systems; Human IL-6 DuoSet ELISA, R&D Systems) at ⅕ and 1/20 dilution in 1× Reagent Diluent (Reagent Ancillary Kit 2, R&D Systems). Data were normalized to the specific per well cell density determined by Hoechst stained nuclei count.
Tables 39-42 show per-cell normalized IL-6 cytokine secretion in primary human hepatic stellate cells from two donors as a fold change from the plasma amino acid background. Statistical significance calculated by one-way ANOVA with Dunnett's multiple comparison test within each treatment group.

TNFα = assay: LPS-induced TNFα secretion in primary human monocyte-derived macrophages (ELISA); set-up: TNFa Measurements Mean: unit not given here; settings: for TNFa Measurements Mean: LPS 0.15 ng/mL; for TNFa Measurements Mean / Donor 2 TNFa Measurements Mean / Donor 3 TNFa Measurements Mean: baseline subtracted; for LPS-induced TNFα secretion: macrophages, 0.15 ng/mL LPS
Procedure: Unpurified buffy coats (Research Blood Components) were carefully poured into 50 mL centrifuge tubes and diluted with room temperature Dulbecco's Phosphate Buffered Saline (dPBS) with Calcium and Magnesium (Gibco). Diluted buffy coats were further divided into four total 50 mL centrifuge tubes at 20 mL per tube. Lymphocyte Separation Medium (Corning) was carefully pipetted to the bottom of each centrifuge tube. Mixtures were centrifuged at 850× g for 32 minutes at 20° C. with 0 deceleration and acceleration.
The PBMC layer was separated from other components after centrifugation and added to new 50 mL centrifuge tube containing 25 mL dPBS. Total volume was brought up to 50 mL with dPBS and centrifuged at 600×g for 10 minutes at 20° C. with acceleration of 9, deceleration of 5. Supernatant was carefully removed from cell pellets. The cell pellets were resuspended using 10 mL dPBS. Total volume was then brought up to 50 mL using dPBS and centrifuged at 450×g for 5 min at 20° C. with acceleration of 9, deceleration of 9. The supernatant removal and cell pellet resuspension was repeated again.
The supernatant was then carefully removed from cell pellets. Cell pellets were resuspended in 10 mL dPBS without calcium or magnesium and filtered through a 70 uM cell strainer. The total PBMC number was determined using a Cellometer K2 automated cell counter. A total of 5E6 cells were saved for flow cytometric analysis. Remaining cells were centrifuged at 490×g for 5 minutes at 20° C. with acceleration of 9, deceleration of 9.
CD14+ cells were selected using EasySep™ Human CD14 Positive Selection Kit II ([…] Technologies). Cells were resuspended in cold EasySep™ Buffer ([…] Technologies) at 1×10^8 cells/mL. A total of 100 uL/mL EasySep™ Human CD14 Positive Selection Cocktail II was added to the cell suspension, mixed, and incubated at room temperature for 10 minutes. A total of 100 uL/mL RapidSpheres were added to the mixture and incubated at room temperature for 3 minutes after mixing, then RoboSep buffer was added to bring up the total volume to 10 mL. The mixture in a 15 mL tube was placed in magnet and incubated at room temperature for 3 minutes. Supernatant was discarded and 10 mL fresh EasySep™ buffer was added to 15 mL tube. The addition of RoboSep buffer, mixing, and discarding of supernatant was repeated two more times.
Negative and positive fractions were centrifuged at 490×g for 5 minutes at 20° C. with acceleration of 9, deceleration of 9, and resuspended in DMEM (Gibco) and 10% Heat Inactivated Fetal Bovine Serum (Atlanta Bio) and Penicillin/Streptomycin. Cells were counted and centrifuged again at 490× g for 5 minutes at 20° C. with acceleration of 9, deceleration of 9. After centrifugation, cell were resuspended in DMEM (Gibco) and 10% Heat Inactivated Fetal Bovine Serum (Atlanta Bio) and Penicillin/Streptomycin containing 500 U/mL […] and plated at 1-2×10^6 cells/mL on 10 cm tissue culture plates. Cells were kept in 37° C., 5% CO2 in between feedings/harvest.
Cells were fed every 3-4 days by removing media and unattached cells, centrifuging at 490× g for 5 minutes at 20° C. with acceleration of 9, deceleration of 9, and resuspending in fresh DMEM (Gibco) and 10% Heat Inactivated Fetal Bovine Serum (Atlanta Bio) and Penicillin/Streptomycin containing GM-CSF. Resuspended cells were seeded back onto 10 cm tissue culture plates and incubated at 37° C., 5% CO2. Differentiated macrophages were used for subsequent experiments.
Primary human PMBC derived macrophages were seeded on day 0 at 3.0E4 cells per well in 96-well microplates (ThermoFisher) in Dulbecco's Modified Eagle Medium (DMEM) (Gibco) supplemented with penicillin-streptomycin (Hyclone) and 10% heat inactivated fetal bovine serum (HI-FBS) (Atlanta Bio) and incubated overnight at 37° C., 5% CO2. On day 1, cells were washed once with 150 uL per well DPBS (Gibco) and treated with 75 uL of: • a. […]

MCP-1 = MCP-1 chemokine secretion by TNFα-stimulated primary human hepatic stellate cells (ELISA); settings: for Fold Change MCP1 Secretion Normalized Per Cell, Mean: donor 3 hepatic stellate cells, TNFα, fold change from plasma amino acid background; for MCP-1 chemokine secretion, per-cell normalized, fold change from plasma amino acid background: primary human hepatic stellate cells, two donors, TNFα 3 ng/mL, 12 hours
Procedure: as §1, §2
Tables 35-38 show per-cell normalized MCP-1 chemokine secretion in primary human hepatic stellate cells from two donors as a fold change from the plasma amino acid background. Statistical significance calculated by one-way ANOVA with Dunnett's multiple comparison test within each treatment group.

CC(=O)N[C@@H](CS)C(=O)O [NAC, N-acetylcysteine]
Fold Change IL-6 Secretion Normalized Per Cell (IL-6; donor 1, Conc. 5 X): 0.7141 | Fold Change IL-6 Secretion Normalized Per Cell (IL-6; donor 1, Conc. 10 X): 0.7354 | Fold Change IL-6 Secretion Normalized Per Cell (IL-6; donor 1, Conc. 20 X): 0.6121 | Fold Change IL-6 Secretion Normalized Per Cell (IL-6; donor 1, Conc. 40 X): 0.5716 | Fold Change IL-6 Secretion Normalized Per Cell (IL-6; donor 2, Conc. 5 X): 0.9161 | Fold Change IL-6 Secretion Normalized Per Cell (IL-6; donor 2, Conc. 10 X): 0.9180 | Fold Change IL-6 Secretion Normalized Per Cell (IL-6; donor 2, Conc. 20 X): 0.8111 | Fold Change IL-6 Secretion Normalized Per Cell (IL-6; donor 2, Conc. 40 X): 0.7064 | IL-6 cytokine secretion, per-cell normalized, fold change from plasma amino acid background (IL-6): reduced IL-6 secretion in both donors but was only statistically significant in one of two donors | TNFa Measurements Mean (TNFα; Donor 1, Conc. 0 X (baseline)): 0 | TNFa Measurements Mean (TNFα; Donor 1, Conc. 5 X): −326.24 | TNFa Measurements Mean (TNFα; Donor 1, Conc. 10 X): −446.88 | TNFa Measurements Mean (TNFα; Donor 1, Conc. 20 X): −561.33 | TNFa Measurements Mean (TNFα; Donor 1, Conc. 40 X): −644.49 | Donor 2 TNFa Measurements Mean (TNFα; Donor 2, Conc. 0 X (baseline)): 9.47E−15 | Donor 2 TNFa Measurements Mean (TNFα; Donor 2, Conc. 5 X): −54.1596 | Donor 2 TNFa Measurements Mean (TNFα; Donor 2, Conc. 10 X): −70.8382 | Donor 2 TNFa Measurements Mean (TNFα; Donor 2, Conc. 20 X): −88.6528 | Donor 2 TNFa Measurements Mean (TNFα; Donor 2, Conc. 40 X): −103.984 | Donor 3 TNFa Measurements Mean (TNFα; Donor 3, Conc. 0 X (baseline)): 4.74E−15 | Donor 3 TNFa Measurements Mean (TNFα; Donor 3, Conc. 5 X): −33.6246 | Donor 3 TNFa Measurements Mean (TNFα; Donor 3, Conc. 10 X): −41.7266 | Donor 3 TNFa Measurements Mean (TNFα; Donor 3, Conc. 20 X): −48.4373 | Donor 3 TNFa Measurements Mean (TNFα; Donor 3, Conc. 40 X): −55.3093 | LPS-induced TNFα secretion (TNFα; Donor 1): significantly reduced | LPS-induced TNFα secretion (TNFα; Donor 2): significantly reduced | LPS-induced TNFα secretion (TNFα; Donor 3): significantly reduced | Fold Change MCP1 Secretion Normalized Per Cell, Mean (MCP-1; Conc. 5 X): 0.8492 | Fold Change MCP1 Secretion Normalized Per Cell, Mean (MCP-1; Conc. 10 X): 0.6565 | Fold Change MCP1 Secretion Normalized Per Cell, Mean (MCP-1; Conc. 20 X): 0.5413 | Fold Change MCP1 Secretion Normalized Per Cell, Mean (MCP-1; Conc. 40 X): 0.4485 | Fold Change MCP1 Secretion Normalized Per Cell (MCP-1; donor 3, Conc. 1000 μM): 0.8492 | Fold Change MCP1 Secretion Normalized Per Cell (MCP-1; donor 3, Conc. 2500 μM): 0.6565 | Fold Change MCP1 Secretion Normalized Per Cell (MCP-1; donor 3, Conc. 5000 μM): 0.5413 | Fold Change MCP1 Secretion Normalized Per Cell (MCP-1; donor 3, Conc. 10000 μM): 0.4485 | Fold Change MCP1 Secretion Normalized Per Cell (MCP-1; donor 4, Conc. 5 X): 0.6437 | Fold Change MCP1 Secretion Normalized Per Cell (MCP-1; donor 4, Conc. 10 X): 0.8033 | Fold Change MCP1 Secretion Normalized Per Cell (MCP-1; donor 4, Conc. 20 X): 0.6728 | Fold Change MCP1 Secretion Normalized Per Cell (MCP-1; donor 4, Conc. 40 X): 0.5011 | MCP-1 chemokine secretion, per-cell normalized, fold change from plasma amino acid background (MCP-1): significantly reduced

CC(C)[C@H](N)C(=O)O [Valine, L-Valine]
Fold Change IL-6 Secretion Normalized Per Cell (IL-6; donor 1, Conc. 234 μM (plasma background, reference)): 1.0000 | Fold Change IL-6 Secretion Normalized Per Cell (IL-6; donor 2, Conc. 234 μM (plasma background, reference)): 1.0000 | IL-6 cytokine secretion, per-cell normalized, fold change from plasma amino acid background (IL-6): no significant effect | TNFa Measurements Mean (TNFα; Donor 1, Conc. 234 μM (baseline)): 0 | TNFa Measurements Mean (TNFα; Donor 1, Conc. 4684 μM): −40.37 | TNFa Measurements Mean (TNFα; Donor 1, Conc. 11710 μM): −41.77 | TNFa Measurements Mean (TNFα; Donor 1, Conc. 23420 μM): −14.98 | Donor 2 TNFa Measurements Mean (TNFα; Donor 2, Conc. 234 μM (baseline)): −4.7E−15 | Donor 2 TNFa Measurements Mean (TNFα; Donor 2, Conc. 4684 μM): −0.00221 | Donor 2 TNFa Measurements Mean (TNFα; Donor 2, Conc. 11710 μM): −0.835 | Donor 2 TNFa Measurements Mean (TNFα; Donor 2, Conc. 23420 μM): −1.251 | Donor 3 TNFa Measurements Mean (TNFα; Donor 3, Conc. 234 μM (baseline)): −2.4E−15 | Donor 3 TNFa Measurements Mean (TNFα; Donor 3, Conc. 4684 μM): 0.126 | Donor 3 TNFa Measurements Mean (TNFα; Donor 3, Conc. 11710 μM): −2.599 | Donor 3 TNFa Measurements Mean (TNFα; Donor 3, Conc. 23420 μM): 3.688 | Fold Change MCP1 Secretion Normalized Per Cell (MCP-1; donor 3, Conc. 234 μM (plasma background, reference)): 1.0000 | Fold Change MCP1 Secretion Normalized Per Cell (MCP-1; donor 3, Conc. 4684 μM): 1.0630 | Fold Change MCP1 Secretion Normalized Per Cell (MCP-1; donor 3, Conc. 11710 μM): 1.0204 | Fold Change MCP1 Secretion Normalized Per Cell (MCP-1; donor 3, Conc. 23420 μM): 1.2651 | Fold Change MCP1 Secretion Normalized Per Cell (MCP-1; donor 4, Conc. 234 μM (plasma background, reference)): 1.0000 | MCP-1 chemokine secretion, per-cell normalized, fold change from plasma amino acid background (MCP-1): no significant impact
